According to patent publication US10907168B2, “Jasmonic acid pathway activator” (MEDICAGO INC., priority 2015, dated 2021):

System: A. tumefaciens
Experiment: Bacterial counts (CFU) in agroinfiltrated leaves
Format: in vivo, Agrobacterium tumefaciens
Conditions: control and treated leaves; after four or six days post-infiltration
Text: Two gene vectors were used for the agroinfiltration assays: an engineered pcambia2300 vector encoding the light and heavy chains of C5-1 fused to an N-terminal signal peptide sequence for cellular secretion (see Goulet et al., 2012 for details on gene construct); and the original (“empty”) pcambia2300 binary vector (CAMBIA, Canberra, Australia) as a control for agroinfection. The two binary vectors were electroporated into A. tumefaciens strain LBA4404 and the cultures were maintained in Luria-Bertani (LB) medium supplemented with 50 μg/ml kanamycin and 50 μg/ml rifampicin. For infiltration, bacteria were grown to stable phase at 28° C. to an OD600 of 1.0 and collected by centrifugation at 2,000 g. The bacterial pellets were resuspended in 10 mM 2-[N-morpholino] ethanesulfonic acid] (MES) buffer, pH 5.8, containing 100 μM acetosyringone and 10 mM MgCl2. Leaf infiltration was performed using a needle-less syringe as described earlier (D'Aoust et al., 2009), after mixing the C5-1 antibody (or empty vector) agrobacterial suspension with an equal volume of bacterial suspension carrying a binary vector for the protein silencing suppressor p19 (Voinnet et al., 2003). […] Bacterial loads in leaves were determined by the counting of CFU on LB agar plates coated with bacteria recovered at different moments from the third main stem leaf. […]

CC/C=C\C[C@H]1C(=O)CC[C@@H]1CC(=O)OC [MeJA, methyl jasmonate]
bacterial counts: less than a million
